Source: publication PMC9630929 (Journal of medicinal chemistry, 2022)

How the values were obtained:
PBRM1-BD5 = conditions: cited from earlier work
SMARCA2 bromodomain [1] = conditions: cited from earlier work
SMARCA2 bromodomain [2] = conditions: DSF; cited from earlier work
PC3 cells = conditions: 0.1, 1, 10 μM; compound 7 up to 100 μM
SMARCA2B bromodomain [3] = molecular target: SMARCA2B bromodomain (Homo sapiens, UniProt P51531); format: binding; conditions: DSF, 100 μM inhibitor, 10 μM bromodomain
[4] = test system: other tested bromodomains; conditions: DSF, 100 μM inhibitor, 10 μM bromodomain
[5] = test system: LNCaP cells expressing shRNA against PBRM1 or vector control; format: cell-based, human; conditions: 10 μM, 5 days
[6] = Solubility observed in the AlphaScreen assay; format: physicochemical; conditions: at tested concentrations
SMARCA2B bromodomain [7] = conditions: cited from earlier work

Sequence of SMARCA2B bromodomain (Homo sapiens, UniProt P51531) (P51531 1373-1493 isoform P51531-2 limits assumed): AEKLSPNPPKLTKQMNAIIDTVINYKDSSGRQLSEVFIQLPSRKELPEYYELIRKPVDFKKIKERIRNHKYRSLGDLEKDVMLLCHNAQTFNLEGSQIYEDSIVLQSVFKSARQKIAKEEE

Which “binding toward PBRM1-BD5” value (PBRM1-BD5) does the source give for `CN(C)/C=C1\CCn2c1nc(=O)c1c(Cl)cccc12` [Compound 2, (E)-6-Chloro-3-((dimethylamino)methylene)-2,3-dihydropyrrolo[1,2-a]quinazolin-5(1H)-one] here?
Its value is “nanomolar binding”.

And the “binding toward SMARCA2 bromodomain” value (SMARCA2 bromodomain [1])?
The value was “nanomolar binding”.

With `CCC(/C=C1\CCn2c1nc(=O)c1c(Cl)cccc12)CC` [Compound 7, (E)-6-Chloro-3-(2-ethylbutylidene)-2,3-dihydropyrrolo[1,2-a]quinazolin-5(1H)-one] as the compound, how does the “ΔTm SMARCA2 bromodomain” value (SMARCA2 bromodomain [2]) read?
Its value is > 2.5 °C.

What about the “growth inhibition of PC3 cells” value (PC3 cells) of the same compound?
The value was “more substantial inhibition”.

Which “SMARCA2B ΔTm” value (SMARCA2B bromodomain [3]) does the source give for `Cc1ccccc1C1NC(=O)c2c(Cl)cccc2N1` (centres unmarked) [Compound 15, 5-Chloro-2-(2-methylphenyl)-2,3-dihydroquinazolin-4(1H)-one] here?
The value was “did not exhibit detectable thermal stabilization”.

What about the “thermal stabilization of the other tested bromodomains (ΔTm)” value [4] of the same compound?
The value was < 1 °C.

Which “SMARCA2B ΔTm” value (SMARCA2B bromodomain [3]) does the source give for `Cc1cccc(C2NC(=O)c3c(Cl)cccc3N2)c1` (centres unmarked) [Compound 16, 5-Chloro-2-(3-methylphenyl)-2,3-dihydroquinazolin-4(1H)-one] here?
The value was “did not exhibit detectable thermal stabilization”.

And the “growth inhibition of PC3 cells” value (PC3 cells)?
The value was “do not inhibit the growth”.

And the “effect on LNCaP viability with native PBRM1 vs PBRM1 knockdown” value [5]?
Its value is “more significant effect on LNCaP viability in cells with native PBRM1 levels than in cells with PBRM1 knockdown”.

Which “solubility in the AlphaScreen assay” value [6] does the source give for `Cc1cc(C)c(C2NC(=O)c3c(Cl)cccc3N2)c(C)c1` (centres unmarked) [Compound 22, 5-Chloro-2-(2,4,6-trimethylphenyl)-2,3-dihydroquinazolin-4(1H)-one] here?
Its value is “solubility issues”.

With `Cc1cccc(C2NC(=O)c3c(Br)cccc3N2)c1` (centres unmarked) [Compound 34, 5-Bromo-2-(3-methylphenyl)-2,3-dihydroquinazolin-4(1H)-one] as the compound, how does the “growth inhibition of PC3 cells” value (PC3 cells) read?
Its value is “do not inhibit the growth”.

Which “binding toward SMARCA2B bromodomain” value (SMARCA2B bromodomain [7]) does the source give for `CCC(CC)C1CC12CCn1c2nc(=O)c2c(Cl)cccc21` (centres unmarked) [LM146] here?
The value was “low micromolar affinity”.

What does the source list for `O=C(/C=C/N1C[C@H]2C[C@@H]1CN2c1ccccn1)c1ccccc1O` [PFI-3]?
binding toward PBRM1-BD5 (PBRM1-BD5): nanomolar binding; binding toward SMARCA2 bromodomain (SMARCA2 bromodomain [1]): nanomolar binding
